We go through 18 compounds from patent US6297230A, “Cyanoaziridines for treating cancer” (priority 2000, dated 2001).

Assay [1] deals with OVCAR-3 ovarian carcinoma cells. The assay is described as follows: In vitro antitumor activity, OVCAR-3 ovarian. It counts as cell-based, human. The note with it: OVCAR3 ovarian. The text has this:
1) in vitro tumor cell viability assays using MTT and SRB dye reaction endpoints.
Sulforhodamine B (SRB) Assay for Adherent Tumor Cells
Sulforhodamine B (SRB) is a protein binding aminoxanthene dye with two sulfonic acid groups. (Lillie, R. D., H. J. Conn's Biological Stains, 9th Ed., Baltimore; Williams & Wilkins, 1977.) It quantitates whole cell protein content by the intensity of dye staining and relates this to the number of viable cells. […] The SRB assay is used for cells which normally adhere to surfaces (in this case plastic culture flasks or petri dishes) as part of their requirement for growth and division in vitro. The SRB assay is currently used by the National Cancer Institute in the anticancer drug screening program. (Skehan, et al., J Natl Cancer Inst 82:1107-1112, 1990; Rubinstein, et al., J Natl Cancer Inst 82:1113-1118, 1990.) Methodologic comparisons have shown that SRB results are linear for the number of tumor cells over a 100-fold range, and for protein content determined by a modified Lowry method or Standard Bradford (Bradford, M., Anal Biochem 72:248-254, 1976) methods. […] (Lillie, R. D., H. J. Conn's Biological Stains, 9th Ed., Baltimore; Williams & Wilkins, 1977.)
Cell cultures of 10^3 -10^7 cells growing in 96-well plastic microtiter plates are fixed with 50% trichloroacetic acid (TCA) for 30 minutes at 4° C. The cells are then stained with 0.4% (w/v) sulforhodamine B (SRB) dissolved in 1% acetic acid. Unbound dye is removed by 4 washes with 1% acetic acid, and protein-bound dye is extracted with 10 mM unbuffered Tris® base [tris(hydroxymethyl)aminomethane]. The optical density (OD) of this extracted solution is measured at […] in a microtiter plate ultraviolet absorbance detector. Cell viability is expressed as percent of control by dividing the optical densities and multiplying the result by 100.
Microculture Tetrazolium (MTT) Assay for Tumor Cells
(§1) Tumors are disaggregated into single cell suspensions using mechanical, hypoosmotic, and/or enzymatic (trypsin) methods. The cells are plated at a concentration of 3-5×10^4 per […] well into plastic 96-well plates. Growth medium containing 5-10% (vol/vol) heat-inactivated fetal bovine serum and penicillin/streptomycin (both […]) are added prior to incubation at 37° C. for 6 days. Afterwards the medium containing the drug is removed, the cells are centrifuged in fresh medium or phosphate-buffered saline (pH 7.4). A tetrazolium dye, […]-2,5-diphenyl tetrazolium (MTT), is then added. (Mossman, T., J Immunol 65:55-63, 1983.) This dye forms a colored formazan product upon activation by mitochondrial reductases in viable cells. Typically, the formazan product is solubilized in acid-propanol or DMSO. The intensity of the color is proportional to viable cell numbers and this is quantitated by spectrophotometric absorbance at 570 nm on a micro ELISA plate reader. The results are calibrated in % control absorbance from untreated tumor cells. (Alley, et al., Cancer Res 48:589-601, 1988.)
Table 3 gives the potencies of the new aziridine-1-carboxamides in a panel of human and murine tumor cells in culture. The tumor cell lines in this table are selected to represent a range of histological and growth phenotypes. Their characteristics are described below.
5.0 Human OVCAR-3 Ovarian Carcinoma was originally isolated by Hamilton, et al. Experimental model systems of ovarian cancer; applications to the design and evaluation of new treatment approaches. Seminar in Onocology, 11:285-298, 1984, from a patient with progressive adenocarcinoma of the ovary. This patient had relapsed after receiving a combination chemotherapy regimen containing cyclophosphamide, doxorubicin and cisplatin. […] It is also one of the standard human tumor cell lines used for screening new anticancer agents at the NCI. (Alley, et al., Cancer Res 48:589-601, 1988.)

Assay [2] deals with L-1210 leukemia cells (sensitive). The assay is described as follows: MTT growth inhibition, sensitive L-1210 leukemia cells. Format: cell-based, mouse. The note with it: Sensitive L-1210, drug continuously present 8 days. Here is the method:
as §1, with “1988.) […]” for “1988.)”
Murine L-1210 Leukemia Cells were first described by Law, et al. from a female DBA/2 mouse exposed to topical methylcholanthrene. (Law, et al., J Natl Cancer Inst 10:179-192, 1949.) The cells represent a lymphocytic lineage and are highly tumorigenic in syngeneic DBA/2 mice, producing lethality typically 10-14 days after inoculation. This cell line has been used extensively to characterize the antitumor activity of chemotherapeutic agents. (Goldin, et al., Cancer Res (Cancer Chemotherapy Screening Data IX) 21:27-92, 1961.) The L-1210 cells have a model 40-41 chromosomes and a very high plating efficiency in suspension cultures in vitro.
*Drug continuously present for 8 days; IC50 measured by MTT dye

[3] abbreviates: Homo sapiens, OVCAR-3, read-out: IC50.
The mark [4] stands for this setting: Mus musculus, L1210, 192 h, read-out: IC50.

Molecules are shown by their SMILES. Values after ≈ are worked out from the molar mass of the structure shown. Like-named read-outs stand apart in the source and are kept apart here.

As usually defined, the IC50 is the point on the concentration scale where inhibition reaches its midpoint. Consider `N#CC1CN1C(=O)Nc1ccc([N+](=O)[O-])cc1` (stereo not drawn) [AMP 417, 2-Cyanoaziridine-1-[N-(4-nitrophenyl)]carboxamide], for which the IC50 turned out to be 1.5 µg/mL in assay [1] (setting [3]) and 0.6 µg/mL (≈ 2.58 µM) in assay [2] (setting [4]).

`N#CC1CN1C(=O)Nc1ccccc1` (stereo not drawn) [AMP 404, 2-Cyanoaziridine-1-(N-phenyl)carboxamide]: the half-inhibitory concentration (IC50) in assay [1] (setting [3]) was 1.3 µg/mL; in assay [2] (setting [4]), 0.2 µg/mL (≈ 1.07 µM).

Turning to `CCNC(=O)N1CC1C#N` (stereo not drawn) [AMP 406, 2-Cyanoaziridine-1-(N-ethyl)carboxamide], the results for the 50% inhibitory concentration (IC50) in assay [1] (setting [3]) and in assay [2] (setting [4]) were 2 µg/mL and 2 µg/mL (≈ 14.4 µM), respectively.

As for `N#CC1CN1C(=O)Nc1ccc(C(F)(F)F)cc1` (stereo not drawn) [AMP 416, 2-Cyanoaziridine-1-[N-(4-trifluorophenyl)]carboxamide], the concentration for half-maximal inhibition (IC50) was 1.5 µg/mL in assay [1] (setting [3]) and 2 µg/mL (≈ 7.84 µM) in assay [2] (setting [4]).

On to `CCOC(=O)CNC(=O)N1CC1C#N` (stereo not drawn) [AMP 420, 2-Cyanoaziridine-1-[N-(ethoxycarbonyl)methyl]carboxamide], for which the IC50 in assay [1] (setting [3]) is 10 µg/mL; in assay [2] (setting [4]), 2.5 µg/mL (≈ 12.7 µM).

With `N#CC1CN1C(=O)Nc1ccc(F)cc1` (stereo not drawn) [AMP 415, 2-Cyanoaziridine-1-[N-(4-fluorophenyl)]carboxamide], the IC50 in assay [1] (setting [3]) worked out at 1.2 µg/mL; in assay [2] (setting [4]), 1.5 µg/mL (≈ 7.31 µM).

Regarding `CC(C)(C)NC(=O)N1CC1C#N` (stereo not drawn) [AMP 410, 2-Cyanoaziridine-1-(N-t-butyl)carboxamide], the IC50 was found to be 31.1 µg/mL in assay [1] (setting [3]) and 22 µg/mL (≈ 132 µM) in assay [2] (setting [4]).

With `N#CC1CN1C(=O)Nc1ccc(S(N)(=O)=O)cc1` (stereo not drawn) [AMP 422, 2-Cyanoaziridine-1-[N-(4-sulfamylphenyl)]carboxamide], the values for the IC50 in assay [1] (setting [3]) and in assay [2] (setting [4]) were 50 µg/mL and greater than 10 µg/mL, respectively.

For `CNC(=O)N1CC1C#N` (stereo not drawn) [AMP 403, 2-Cyanoaziridine-1-(N-methyl)carboxamide], the IC50 in assay [1] (setting [3]) is 1.7 µg/mL; in assay [2] (setting [4]) it was 1.1 µg/mL (≈ 8.79 µM).

As for `CCCCNC(=O)N1CC1C#N` (stereo not drawn) [AMP 414, 2-Cyanoaziridine-1-(N-butyl)carboxamide], the IC50 is 2 µg/mL in assay [1] (setting [3]) and 2 µg/mL (≈ 12 µM) in assay [2] (setting [4]).

Turning to `CCOC(=O)c1ccc(NC(=O)N2CC2C#N)cc1` (stereo not drawn) [AMP 419, 2-Cyanoaziridine-1-[N-(4-ethoxycarbonylphenyl)]carboxamide], the IC50 in assay [1] (setting [3]) turned out to be 1.5 µg/mL; in assay [2] (setting [4]), 2.5 µg/mL (≈ 9.64 µM).

As to `N#CC1CN1C(=O)NC1CCCCC1` (stereo not drawn) [AMP 413, 2-Cyanoaziridine-1-(N-cyclohexyl)carboxamide], the 50% inhibitory concentration (IC50) in assay [1] (setting [3]) was 5.9 µg/mL; in assay [2] (setting [4]), 1.4 µg/mL (≈ 7.24 µM).

As to `N#CC1CN1C(=O)Nc1ccc(Cl)cc1Cl` (stereo not drawn) [AMP 407, 2-Cyanoaziridine-1-[N-(2,4-dichlorophenyl)]carboxamide], the IC50 is 0.6 µg/mL in assay [1] (setting [3]) and 52.3 µg/mL (≈ 204 µM) in assay [2] (setting [4]).

Regarding `N#CC1CN1C(=O)NCc1ccccc1` (stereo not drawn) [AMP 412, 2-Cyanoaziridine-1-(N-benzyl)carboxamide], the values for the half-maximal inhibitory concentration (IC50) in assay [1] (setting [3]) and in assay [2] (setting [4]) were 1 µg/mL and 0.8 µg/mL (≈ 3.98 µM), respectively.

`CC(=O)Oc1ccccc1NC(=O)N1CC1C#N` (stereo not drawn) [AMP 424, 2-Cyanoaziridine-1-[N-(2-acetoxyphenyl)]carboxamide]: the concentration for half-maximal inhibition (IC50) in assay [1] and in assay [2] was greater than 10 µg/mL throughout.

Regarding `CC(=O)c1cccc(NC(=O)N2CC2C#N)c1` (stereo not drawn) [AMP 425, 2-Cyanoaziridine-1-[N-(3-acetylphenyl)]carboxamide], the IC50 in assay [1] (setting [3]) turned out to be 2.23 µg/mL; in assay [2] (setting [4]), 2.2 µg/mL (≈ 9.6 µM).

In the case of `N#CC1CN1C(=O)Nc1cccnc1` (stereo not drawn) [AMP 421, 2-Cyanoaziridine-1-[N-(3-pyridyl)]carboxamide], the values for the IC50 in assay [1] (setting [3]) and in assay [2] (setting [4]) were 1.9 µg/mL and 2.3 µg/mL (≈ 12.2 µM), respectively.

For the compound `N#CC1CN1C(=O)Nc1cccc2ccccc12` (stereo not drawn) [AMP 423, 2-Cyanoaziridine-1-[N-(1-naphthyl)]carboxamide], the IC50 in assay [1] (setting [3]) came to 1.4 µg/mL; in assay [2] (setting [4]), 1.7 µg/mL (≈ 7.17 µM).
